The record followed here is ChEMBL document CHEMBL1201862, “PubChem BioAssay data set” (2004).

In experiment [1] the target is Estrogen receptor beta (Homo sapiens, UniProt Q92731).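 Note: recombinant ER-beta bound to coactivator SRC1 peptide in presence of estradiol agonist; inhibitors block coactivator peptide binding and lower the FRET signal.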
Experiment [2] deals with Vero. Kind of experiment: mammalian cell viability reduction – secondary assay, cytotoxicity control for West Nile virus antiviral project, dose response (AID 1650). The format is functional. To be noted: Chlorocebus sabaeus.
Experiment [3] in a line: M. tuberculosis H37Rv growth inhibitors, H37Rv strain (AID 1626). The format is functional.
In experiment [4] the target is Sphingosine 1-phosphate receptor 2 (Homo sapiens, UniProt O95136). Kind of experiment: Dose Response Cell Based Assay for Agonists of the S1P2 Receptor of Purchased Analogues. [Related pubchem assays: 729, 843, 854, 736 ]. The format is functional.
Chain of Sphingosine 1-phosphate receptor 2 (O95136 whole entry): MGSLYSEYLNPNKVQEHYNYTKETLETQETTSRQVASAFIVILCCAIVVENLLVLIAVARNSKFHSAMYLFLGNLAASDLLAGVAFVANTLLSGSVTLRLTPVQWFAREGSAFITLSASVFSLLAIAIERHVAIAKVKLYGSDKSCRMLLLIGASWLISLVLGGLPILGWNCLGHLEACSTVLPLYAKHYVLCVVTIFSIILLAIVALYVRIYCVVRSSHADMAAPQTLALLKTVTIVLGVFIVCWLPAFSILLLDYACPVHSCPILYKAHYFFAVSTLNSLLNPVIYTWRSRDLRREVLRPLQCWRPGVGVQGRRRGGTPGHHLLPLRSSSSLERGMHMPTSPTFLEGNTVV
For experiment [5], the target named is T1, Galanin receptor type 3 (Homo sapiens, UniProt O60755).
T1 sequence (O60755 whole entry): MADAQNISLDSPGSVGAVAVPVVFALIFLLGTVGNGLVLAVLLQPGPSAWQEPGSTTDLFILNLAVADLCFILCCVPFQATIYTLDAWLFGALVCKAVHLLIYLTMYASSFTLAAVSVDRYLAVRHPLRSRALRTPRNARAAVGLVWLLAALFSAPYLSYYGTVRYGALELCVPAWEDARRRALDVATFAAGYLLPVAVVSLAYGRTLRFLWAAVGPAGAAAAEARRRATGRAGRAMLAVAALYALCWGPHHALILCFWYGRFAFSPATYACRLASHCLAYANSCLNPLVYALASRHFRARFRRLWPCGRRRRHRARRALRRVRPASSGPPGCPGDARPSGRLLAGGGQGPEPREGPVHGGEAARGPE
Kind of experiment: Fluorescence-based cell-based primary high throughput dose response assay to identify antagonists of the Galanin Receptor 3 (GalR3). The format is functional.

Experiment [6] has as its target T2, COUP transcription factor 2 (Homo sapiens, UniProt P24468).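 Note: HEK293 cells transiently cotransfected with COUP-TFII expression vector and reporter; luciferase reporter luminescence driven by COUP-TFII from the pX2-168 reporter plasmid.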
T2 sequence (P24468 whole entry): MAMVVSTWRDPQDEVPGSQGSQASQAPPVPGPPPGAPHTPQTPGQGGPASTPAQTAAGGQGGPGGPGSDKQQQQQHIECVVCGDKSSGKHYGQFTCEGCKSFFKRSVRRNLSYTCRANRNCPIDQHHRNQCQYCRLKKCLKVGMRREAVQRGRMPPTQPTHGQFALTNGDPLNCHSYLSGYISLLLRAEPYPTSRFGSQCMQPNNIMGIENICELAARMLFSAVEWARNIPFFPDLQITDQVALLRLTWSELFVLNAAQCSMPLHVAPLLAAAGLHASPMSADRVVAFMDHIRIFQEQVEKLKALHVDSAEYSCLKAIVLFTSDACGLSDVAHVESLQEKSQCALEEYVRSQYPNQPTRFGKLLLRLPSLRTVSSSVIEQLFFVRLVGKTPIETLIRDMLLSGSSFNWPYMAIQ
Kind of experiment: Luminescence-based cell-based high throughput dose response assay to identify inhibitors of COUP-TFII (NR2F2). The format is functional.

Experiment [7] in a line: HEK-293T viability loss after treatment – luminescence, T-cell screen hits, cytotoxicity control for TCR NF-kB inhibitor project, dose response (AID 489026).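 Note: cells exposed to compound about 14 hours before the viability readout.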 The format is functional, cell-based.
Experiment [8] in a line: cells. The format is functional, cell-based. Particulars: HEK-CNG.
The target of experiment [9] is Kallikrein-7 (Homo sapiens, UniProt P49862). Kind of experiment: Fluorescence Intensity-based biochemical primary high throughput dose response assay to identify activators of kallikrein-7 (K7) zymogen.
Chain of Kallikrein-7 (P49862 whole entry): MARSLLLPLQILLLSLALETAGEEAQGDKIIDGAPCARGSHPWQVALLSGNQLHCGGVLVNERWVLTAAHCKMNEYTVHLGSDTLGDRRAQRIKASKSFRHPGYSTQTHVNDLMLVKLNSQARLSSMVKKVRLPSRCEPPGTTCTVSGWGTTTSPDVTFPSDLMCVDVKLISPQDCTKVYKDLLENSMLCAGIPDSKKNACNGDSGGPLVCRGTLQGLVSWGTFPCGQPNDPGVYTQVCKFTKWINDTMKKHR
The target in experiment [10] is T3, Caspase-6 (Homo sapiens, UniProt P55212).
T3 sequence (P55212 whole entry): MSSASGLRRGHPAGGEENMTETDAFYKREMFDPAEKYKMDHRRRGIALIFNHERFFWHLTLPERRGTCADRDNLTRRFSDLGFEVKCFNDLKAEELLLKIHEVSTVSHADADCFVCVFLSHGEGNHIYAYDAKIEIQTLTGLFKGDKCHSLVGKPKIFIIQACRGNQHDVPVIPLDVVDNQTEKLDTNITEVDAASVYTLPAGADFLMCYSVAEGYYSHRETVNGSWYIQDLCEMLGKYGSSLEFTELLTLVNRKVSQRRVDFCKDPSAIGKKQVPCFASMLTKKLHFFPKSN
Kind of experiment: inhibition of CASP6 peptide cleavage – biochemical, VEID-R110 fluorescence, cherry-pick, dose response (AID 720632).

For experiment [11], the target named is T4, Carboxy-terminal domain RNA polymerase II polypeptide A small phosphatase 1 (Homo sapiens, UniProt Q9GZU7).
T4 sequence (Q9GZU7 whole entry): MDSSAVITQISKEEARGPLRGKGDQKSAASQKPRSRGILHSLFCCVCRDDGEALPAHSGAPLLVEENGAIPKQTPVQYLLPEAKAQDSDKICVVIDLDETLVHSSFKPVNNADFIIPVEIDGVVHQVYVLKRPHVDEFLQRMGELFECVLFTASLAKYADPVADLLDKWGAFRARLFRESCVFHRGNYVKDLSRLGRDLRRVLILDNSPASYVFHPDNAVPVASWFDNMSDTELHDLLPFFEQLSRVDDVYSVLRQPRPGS
Kind of experiment: CTDSP1 inhibitors, concentration-response, biochemical, absorbance readout, ultra-high-throughput screen actives (AID 540297). The format is functional.

Experiment [12] in a line: cells.
The target of experiment [13] is T5, Mannose-6-phosphate isomerase (Homo sapiens, UniProt P34949).
T5 sequence (P34949 whole entry): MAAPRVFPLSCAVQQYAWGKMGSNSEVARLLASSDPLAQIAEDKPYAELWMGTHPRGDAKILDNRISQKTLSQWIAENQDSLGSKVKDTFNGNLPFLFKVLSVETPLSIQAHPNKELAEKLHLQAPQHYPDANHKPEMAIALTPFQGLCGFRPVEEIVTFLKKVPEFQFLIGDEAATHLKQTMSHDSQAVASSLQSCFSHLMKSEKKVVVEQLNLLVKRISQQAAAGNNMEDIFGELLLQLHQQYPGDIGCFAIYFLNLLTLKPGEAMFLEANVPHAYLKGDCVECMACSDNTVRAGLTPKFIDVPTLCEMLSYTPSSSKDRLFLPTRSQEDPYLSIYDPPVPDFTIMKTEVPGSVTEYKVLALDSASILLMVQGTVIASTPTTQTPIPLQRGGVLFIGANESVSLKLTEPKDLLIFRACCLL
Kind of experiment: MPI enzyme activity inhibition – biochemical, fluorescence intensity, coupled assay, primary screen (AID 1209).

Experiment [14] deals with T6, Protein skinhead-1 (Caenorhabditis elegans, UniProt P34707).
T6 sequence (P34707 whole entry): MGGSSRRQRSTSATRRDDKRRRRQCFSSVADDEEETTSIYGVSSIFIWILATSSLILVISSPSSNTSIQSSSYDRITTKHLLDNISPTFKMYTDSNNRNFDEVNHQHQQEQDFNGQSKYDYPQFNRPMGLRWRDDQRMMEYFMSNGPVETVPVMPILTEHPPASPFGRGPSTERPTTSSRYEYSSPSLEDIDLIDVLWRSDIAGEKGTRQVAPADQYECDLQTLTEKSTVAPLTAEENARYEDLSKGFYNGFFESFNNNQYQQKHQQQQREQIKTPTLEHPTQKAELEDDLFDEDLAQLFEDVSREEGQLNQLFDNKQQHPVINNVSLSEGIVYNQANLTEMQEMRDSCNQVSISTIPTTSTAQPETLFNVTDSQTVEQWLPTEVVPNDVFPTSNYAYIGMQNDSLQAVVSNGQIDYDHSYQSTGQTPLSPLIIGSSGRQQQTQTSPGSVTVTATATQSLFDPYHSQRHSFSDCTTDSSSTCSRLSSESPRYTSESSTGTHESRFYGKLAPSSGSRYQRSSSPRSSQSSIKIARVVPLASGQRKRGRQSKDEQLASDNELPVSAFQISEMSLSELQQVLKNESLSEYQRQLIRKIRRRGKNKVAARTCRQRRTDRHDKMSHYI
The format is functional.

In experiment [15] the target is T5, Mannose-6-phosphate isomerase. Kind of experiment: MPI inhibition at elevated mannose 6-phosphate – biochemical, fluorescence intensity, high mannose 6-phosphate, primary screen (AID 1220).
The nature of experiment [16]: viability of uninfected HEp-2 cells – cell-based, HTS, cytotoxicity control for RSV inhibitor project, dose response (AID 2410). The format is functional. To be noted: human respiratory syncytial virus.
A short description of experiment [17]: non-specific 3'UTR reporter inhibition in Clone20-Shn3RL – cell-based, Renilla luciferase, cherry-picked, counter-screen for Shn3 inhibitor project, dose response (AID 624133). The format is functional.
Experiment [18] can be described thus: loss of viability in HepG2 cells – cell-based, CellTiter-Glo, cherry-picked, cytotoxicity control for Shn3 inhibitor project, dose response (AID 624134). The format is functional.
Experiment [19] can be described thus: reduction of Shn3 3'UTR-driven luciferase in osteoblasts – cell-based, Clone20 osteoblasts, firefly luciferase, cherry-picked, dose response (AID 624132).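 Note: firefly luciferase luminescence from reporter carrying the Shn3 3'UTR in osteoblasts.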 The format is functional.
Experiment [20] can be described thus: Luminescence Cell-Based Dose Response HTS to Identify Activators of Luciferase Translation or Activity in H4 […] Cells. [Related pubchem assays: 1829 (Project Summary), 1814 (Primary HTS)]. The format is functional.
Experiment [21] deals with H4. Kind of experiment: Luminescence Cell-Based Dose Response HTS to Identify Activators of 5'UTR Stem-Loop Driven Prion Protein mRNA Translation in H4 Neuroglioblastoma Cells. [Related pubchem assays: 1829 (Project Summary), 1814 (Primary HTS)]. The format is functional. To be noted: Homo sapiens.
The nature of experiment [22]: Luminescence Cell-Based Dose Confirmation HTS to Identify Activators of 5'UTR Stem-Loop Driven Alpha-Synuclein mRNA Translation in H4 Neuroglioblastoma Cells. [Related pubchem assays: 1829 (Project Summary), 1814 (Primary HTS)]. The format is functional.
Experiment [23] is described as follows: A Cell Based Secondary Assay To Explore Cytotoxicity of Compounds that Sensitize Mycobacterium Tuberculosis to Beta-Lactam Antibiotics. The format is functional.

Structures are written as SMILES. Active and inactive are the calls of the source.

Chain of Estrogen receptor beta (Q92731 whole entry): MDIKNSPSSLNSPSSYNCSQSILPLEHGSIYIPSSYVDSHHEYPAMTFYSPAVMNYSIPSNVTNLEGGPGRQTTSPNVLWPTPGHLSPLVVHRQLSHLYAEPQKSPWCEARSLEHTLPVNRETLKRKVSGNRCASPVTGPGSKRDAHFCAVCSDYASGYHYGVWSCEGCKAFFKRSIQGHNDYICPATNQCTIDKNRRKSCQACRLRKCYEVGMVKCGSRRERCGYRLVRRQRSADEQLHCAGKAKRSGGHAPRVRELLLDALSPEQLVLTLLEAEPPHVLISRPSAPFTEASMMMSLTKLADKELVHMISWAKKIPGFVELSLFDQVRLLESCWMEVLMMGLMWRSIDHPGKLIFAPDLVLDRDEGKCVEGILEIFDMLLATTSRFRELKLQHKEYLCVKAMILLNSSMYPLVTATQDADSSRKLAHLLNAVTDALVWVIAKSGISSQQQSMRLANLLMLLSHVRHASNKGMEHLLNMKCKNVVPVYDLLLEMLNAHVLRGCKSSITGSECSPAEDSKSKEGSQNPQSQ

As to `O=C(O)c1cc2sccc2s1`, in [1], the IC50 is reported as > 50 µM (not active).

Consider `CC(C)Oc1ccc(C(=O)Nc2ccc(Cl)c(S(=O)(=O)Nc3ccc(Cl)cc3)c2)cc1`, for which the cytotoxic concentration (CC50) in experiment [2] is 28.1 µM (active).

Consider `CCCCC(=O)OCC(=O)Nc1ccc(SC(F)F)cc1`, for which the IC50 in experiment [3] was > 100 µM (active).

In the case of `Cc1cc(C(=O)COc2ccc(C(N)=O)cc2)c(C)n1Cc1ccccc1`, in experiment [4], the EC50 was > 30 µM (not active).

`COc1ccc(OC)c(CCNC(=O)Cn2nc(C)c3c(C)n(-c4ccc(C)cc4)nc3c2=O)c1`: the IC50 in experiment [5] was 2.76 µM (active); in [6], 2.61 µM (active); in experiment [7], > 80 µM (inactive). Also, the EC50 in [8] was > 29.9 µM (inactive).

In the case of `CC[C@@H]1C(c2ccc(F)cc2)=NN(c2ccccc2)[C@H]1C(=O)N1CCOC1=O`, the EC50 in experiment [9] is 7.45 µM (active).

As to `Cc1ccc(OCCC(=O)Nc2ccc(C)c(F)c2)cc1`, the IC50 in [3] was > 100 µM (active).

Consider `CC(=O)c1ccc(OCC(=O)c2cc(C)n(Cc3ccccc3)c2C)cc1`, for which the EC50 in experiment [4] was > 30 µM (not active).

On to `CCc1ccccc1NC(=O)CNC(=O)CCc1nc2sc3c(c2c(=O)[nH]1)CCCC3`, for which, in experiment [10], the AC50 is 24.8 µM (active). Also, in experiment [11], the concentration for half-maximal inhibition (IC50) is 5.82 µM (active).

Regarding `COc1cccc(C2(C)NC(=O)N(CC(=O)c3cc(C)n(Cc4ccccc4)c3C)C2=O)c1` (stereo not drawn), in experiment [4], the EC50 was > 30 µM (not active).

For the compound `Cc1ccc(S(=O)(=O)N2CCN(C)CC2)cc1-c1nnc2c3ccccc3c(C)nn12`, the IC50 in [12] is 23.1 µM (active).

With `O=C(O)CCNc1cc2ccccc2cc1C(=O)O`, the IC50 was > 50 µM (not active) in experiment [13], > 100 µM (inactive) in experiment [14] and > 50 µM (not active) in experiment [15].

As for `CCOc1ccc(OCC)c(NC(=O)CN2CCN(c3cc(C)ccc3C)CC2)c1`, the IC50 in experiment [3] is > 100 µM (active).

Regarding `Cc1cc(C)c2cc(C=O)c(Cl)nc2c1`, the IC50 in experiment [13] is 14.2 µM (active); in experiment [15], 17.1 µM (active).

For the compound `CCN(c1ccccc1)S(=O)(=O)c1ccc(Cl)c(NC(=O)CSc2nc[nH]n2)c1`, in experiment [16], the CC50 is 46.3 µM (active). Further, the 50% inhibitory concentration (IC50) in [12] was 16.9 µM (active).

With `CCC(C)C(NC(=O)CCCNC(=O)CCC(=O)OC1O[C@H]2OC3(C)CC[C@H]4[C@H](C)CCC(C1C)C24OO3)C(=O)O` (stereo partly drawn), the AC50 in [17] is 0.683 µM (active); in experiment [18], > 70 µM (inactive); in experiment [19] it was 1.02 µM (active). The IC50 in [6] is > 85.4 µM (inactive).

Turning to `Cc1nc(N=C(N)NC(=O)c2ccccc2)nc2ccccc12`, the EC50 in experiment [20] was 28.4 µM (active); in experiment [21], 63.4 µM (active); in experiment [22], 8.34 µM (active). For the same compound, the CC50 in [23] is > 40 µM (active).

Take `c1ccc(-c2cc(N3CCOCC3)nc3ccccc23)cc1`: the CC50 in experiment [23] was > 40 µM (active).

Take `CS(=O)(=O)c1ccc(-c2sc3cc4c(cc3c2C(=O)NN2CCOCC2)OCO4)cc1`: the EC50 in [9] was > 23.2 µM (inactive). Further, the IC50 in experiment [11] is 14.6 µM (active).

`COc1ccc(-c2ccc3c(n2)CCCN3Cc2ccccc2C(F)(F)F)cc1`: in experiment [9], the EC50 was 17.2 µM (inactive).

Regarding `C(=N\Nc1ncnc2sc3c(c12)CCC3)/c1ccncc1`, the values for the cytotoxic concentration (CC50) in experiment [2] and in experiment [16] were > 100 µM (active) and 38.7 µM (active), respectively.

In the case of `COc1cc(C)c2occ(/C(C)=N\O)c2c1`, the IC50 in [12] is 18.4 µM (active).
